Experiment [1] has as its system CD69 expression on CD19+ B cells in human whole blood. Description: In Vitro whole blood CD69 Assay. Conditions: B-cell; human heparinized whole blood, anti-human IgD stimulation overnight, percentage of CD19+ B cells expressing CD69, flow cytometry; read-out: IC50. It counts as cell-based. The protocol: In Vitro whole blood CD69 Assay
Human heparinized venous blood from health donors was aliquoted into 96-well plate and “spiked” with serial dilutions of formula I compounds in DMSO or with DMSO without drug. The final concentration of DMSO in all wells was 0.1%. The plate was incubated at 37° C. for 30 min. Drug-containing samples were stimulated with […] mouse anti-human IgD-dextran (1A62) or […] polyclonal rabbit F(ab′)2 anti-human IgD. Phosphate-buffered saline (PBS) was added to the negative control unstimulated sample and the plates were incubated overnight (18 to 22 hours) at 37° C. Cells were stained with fluorochrome-conjugated anti-CD19 and anti-CD69 antibodies. Lyse/fix solution was used to remove red blood cells by hypotonic lysis and to fix the remaining cells, which were then analyzed by flow cytometry. CD19+ B cells were gated and analyzed for CD69 expression. The percentage of B cells expressing CD69 was plotted versus the log 10 of the concentration of the drug and the best-fit curves (variable Hill slope) were generated to obtain the IC50 value.
(Flow cytometry measures light scatter and fluorescence of single cells or particles in a stream.)

Experiment [2] deals with T1, active BTK enzyme (Upstate 14-552) (Homo sapiens, UniProt Q06187).
T1 construct: purchased Upstate 14-552
T1 sequence (Q06187 whole entry): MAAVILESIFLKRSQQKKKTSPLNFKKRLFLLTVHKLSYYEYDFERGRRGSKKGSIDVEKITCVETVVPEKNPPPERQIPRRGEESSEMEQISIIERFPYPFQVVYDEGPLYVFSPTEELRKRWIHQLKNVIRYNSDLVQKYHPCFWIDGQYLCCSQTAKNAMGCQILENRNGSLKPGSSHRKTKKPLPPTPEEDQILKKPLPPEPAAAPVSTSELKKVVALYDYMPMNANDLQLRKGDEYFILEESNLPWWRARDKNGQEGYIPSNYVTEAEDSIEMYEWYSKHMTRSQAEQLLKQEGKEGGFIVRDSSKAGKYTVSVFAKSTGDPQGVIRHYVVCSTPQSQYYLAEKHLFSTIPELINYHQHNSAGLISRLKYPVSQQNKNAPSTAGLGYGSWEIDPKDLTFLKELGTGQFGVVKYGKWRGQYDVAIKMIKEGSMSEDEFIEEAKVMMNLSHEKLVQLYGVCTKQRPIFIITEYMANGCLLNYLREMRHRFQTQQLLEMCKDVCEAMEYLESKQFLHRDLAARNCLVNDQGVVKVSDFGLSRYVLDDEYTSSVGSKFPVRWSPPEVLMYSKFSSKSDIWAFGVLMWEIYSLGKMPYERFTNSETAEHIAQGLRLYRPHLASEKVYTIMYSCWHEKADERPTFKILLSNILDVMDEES
As to the kind of experiment: In Vitro BTK Kinase Assay: Btk-PolyGAT-LS Assay. It counts as biochemical. Conditions: ATP 10 μM, polyGAT 100 nM, BTK 0.25 nM, 30 minutes, TRF readout. The protocol: In Vitro BTK Kinase Assay: Btk-PolyGAT-LS Assay The purpose of the BTK in vitro assay is to determine compound potency against BTK through the measurement of IC50. Compound inhibition is measured after monitoring the amount of phosphorylation of a fluorescein-labeled polyGAT peptide (Invitrogen PV3611) in the presence of active BTK enzyme (Upstate 14-552), ATP, and inhibitor. The BTK kinase reaction was done in a black 96 well plate (costar 3694). For a typical assay, a 24 μL aliquot of a ATP/peptide master mix (final concentration; ATP 10 μM, polyGAT 100 nM) in kinase buffer (10 mM Tris-HCl pH 7.5, 10 mM MgCl2, 200 μM […], 5 mM DTT, 0.01% Triton X-100, and 0.2 mg/ml casein) is added to each well. Next, […] of a 4-fold, 40× compound titration in 100% DMSO solvent is added, followed by adding 15 μL of BTK enzyme mix in 1× kinase buffer (with a final concentration of 0.25 nM). The assay is incubated for 30 minutes before being stopped with 28 μL of a 50 mM EDTA solution. Aliquots (5 μL) of the kinase reaction are transferred to a low volume white 384 well plate (Coming 3674), and 5 μL of a 2× detection buffer (Invitrogen PV3574, with 4 nM Tb-PY20 antibody, Invitrogen PV3552) is added. The plate is covered and incubated for 45 minutes at room temperature. Time resolved fluorescence (TRF) on Molecular Devices M5 (332 nm excitation; 488 nm emission; 518 nm fluorescein emission) is measured. IC50 values are calculated using a four parameter fit with 100% enzyme activity determined from the DMSO control and 0% activity from the EDTA control.

Structures are written as SMILES. Bounds are passed on as bounds.

Take `C=CC(=O)N(C)[C@@H]1CCCN(c2cnccc2-c2ccc(CNC(=O)c3cn(C(C)(C)C)nn3)c(C)c2)C1` [Example 22, (R)-1-(tert-butyl)-N-(2-methyl-4-(3-(3-(N-methylacrylamido)piperidin-1-yl)pyridin-4-yl)benzyl)-1H-1,2,3-triazole-4-carboxamide]: the IC50 was less than 100 nM in experiment [1] and not above 1 nM in experiment [2].

Take `C=CC(=O)N(C)C1CCCN(c2cnccc2-c2ccc(CNC(=O)c3coc(C(C)(C)C)n3)c(C)c2)C1` (stereo not drawn) [Example 37, 2-(tert-butyl)-N-(2-methyl-4-(3-(3-(N-methylacrylamido)piperidin-1-yl)pyridin-4-yl)benzyl)oxazole-4-carboxamide]: the IC50 is 100 to 1000 nM in experiment [1] and not above 1 nM in experiment [2].

On to `C=CC(=O)N1CCC[C@H](c2cnccc2-c2ccc(CNC(=O)c3cn(C(C)(C)C)nn3)c(C)c2)C1` (single isomer, unassigned) [Example 24], for which the IC50 in experiment [1] was more than 1000 nM; in experiment [2] it was 1 to 10 nM.

Regarding `Cc1cc(-c2c(C#N)cncc2N2CCN(C(=O)/C=C/CN(C)C)CC2)ccc1CNC(=O)c1noc(C(C)(C)C)n1` [Example 69, (E)-5-(tert-butyl)-N-(4-(3-cyano-5-(4-(4-(dimethylamino)but-2-enoyl)piperazin-1-yl)pyridin-4-yl)-2-methylbenzyl)-1,2,4-oxadiazole-3-carboxamide], the IC50 in experiment [1] is 100 to 1000 nM; in experiment [2], 1 to 10 nM.

`C=CC(=O)N1CCC[C@H](c2cnccc2-c2ccc(CNC(=O)c3cc(C(C)(C)C)on3)c(C)c2)C1` (single isomer, unassigned) [Example 33]: the IC50 in experiment [1] is more than 1000 nM; in experiment [2], 1 to 10 nM.

Regarding `C=CC(=O)N1CCC(c2cnccc2-c2ccc(CNC(=O)c3nc(C(C)(C)C)no3)c(C)c2)CC1` [Example 36, N-(4-(3-(1-acryloylpiperidin-4-yl)pyridin-4-yl)-2-methylbenzyl)-3-(tert-butyl)-1,2,4-oxadiazole-5-carboxamide], the IC50 was in the range of 100 to 1000 nM in experiment [1] and 1 to 10 nM in experiment [2].

For the molecule `C=CC(=O)N1CCCC(c2cnccc2-c2ccc(CNC(=O)c3noc(C4(C)CC4)n3)c(C)c2)C1` (stereo not drawn) [Example 26, N-(4-(3-(1-acryloylpiperidin-3-yl)pyridin-4-yl)-2-methylbenzyl)-5-(1-methylcyclopropyl)-1,2,4-oxadiazole-3-carboxamide], the IC50 was in the range of 100 to 1000 nM in experiment [1] and 1 to 10 nM in experiment [2].

For `C=CC(=O)N1CCCC12CCN(c1cnccc1-c1ccc(CNC(=O)c3cn(C(C)(C)C)nn3)c(C)c1)C2` (stereo not drawn) [Example 3, N-(4-(3-(1-acryloyl-1,7-diazaspiro[4.4]nonan-7-yl)pyridin-4-yl)-2-methylbenzyl)-1-(tert-butyl)-1H-1,2,3-triazole-4-carboxamide], the IC50 in experiment [1] is more than 1000 nM; in experiment [2], 1 to 10 nM.

`C=CC(=O)N(C)[C@@H]1CCCN(c2cnccc2-c2ccc(CNC(=O)c3noc(C(C)(C)C)n3)c(C)c2F)C1` (stereo in doubt) [Example 19, 5-(tert-butyl)-N-(3-fluoro-2-methyl-4-(3-(3-(N-methylacrylamido)piperidin-1-yl)pyridin-4-yl)benzyl)-1,2,4-oxadiazole-3-carboxamide]: the IC50 in experiment [1] was 100 to 1000 nM; in experiment [2] it was not above 1 nM.

For the molecule `C=CC(=O)N1CCN(c2cnccc2-c2ccc(CNC(=O)c3cn(C(C)(C)C)nn3)c(C)c2)CC1` [Example 49, N-(4-(3-(4-acryloylpiperazin-1-yl)pyridin-4-yl)-2-methylbenzyl)-1-(tert-butyl)-1H-1,2,3-triazole-4-carboxamide], the IC50 in experiment [1] is 100 to 1000 nM; in experiment [2], not above 1 nM.

As to `C=CC(=O)N1CCC[C@@H](c2cnccc2-c2ccc(CNC(=O)c3noc(C4(C)CC4)n3)c(C)c2)C1` (single isomer, unassigned) [Example 28], the IC50 in experiment [1] is more than 1000 nM; in experiment [2], more than 10 nM.

`C=CC(=O)N(C)C1CCCN(c2cnccc2-c2ccc(CNC(=O)c3noc(C(C)(C)C)n3)c(C)c2)C1` (stereo not drawn) [Example 12, 5-(tert-butyl)-N-(2-methyl-4-(3-(3-(N-methylacrylamido)piperidin-1-yl)pyridin-4-yl)benzyl)-1,2,4-oxadiazole-3-carboxamide]: the IC50 was less than 100 nM in experiment [1] and not above 1 nM in experiment [2].

Turning to `C=CC(=O)N(C)C1CCCN(c2cnccc2-c2ccc(CNC(=O)c3cn(C(C)(C)C)cn3)c(C)c2)C1` (stereo not drawn) [Example 43, 1-(tert-butyl)-N-(2-methyl-4-(3-(3-(N-methylacrylamido)piperidin-1-yl)pyridin-4-yl)benzyl)-1H-imidazole-4-carboxamide], the IC50 in experiment [1] was more than 1000 nM; in experiment [2], 1 to 10 nM.

Consider `C=CC(=O)N(C)[C@H]1CCC(=O)N(c2cnccc2-c2ccc(CNC(=O)c3nnn(C(C)(C)C)n3)c(C)c2)C1` (single isomer, unassigned) [Example 53 Peak 1], for which the IC50 was more than 1000 nM in experiment [1] and 1 to 10 nM in experiment [2].

On to `C=CC(=O)N(C)C1CCCN(c2cncnc2-c2ccc(CNC(=O)c3cn(C(C)(C)C)nn3)c(C)c2)C1` (stereo not drawn) [Example 8, 1-(tert-butyl)-N-(2-methyl-4-(5-(3-(N-methylacrylamido)piperidin-1-yl)pyrimidin-4-yl)benzyl)-1H-1,2,3-triazole-4-carboxamide], for which the IC50 is less than 100 nM in experiment [1] and not above 1 nM in experiment [2].

For `C=CC(=O)N(CC)[C@@H]1CCCN(c2cnccc2-c2ccc(CNC(=O)c3cn(C(C)(C)C)nn3)c(C)c2)C1` (stereo in doubt) [Example 16, 1-(tert-butyl)-N-(4-(3-(3-(N-ethylacrylamido)piperidin-1-yl)pyridin-4-yl)-2-methylbenzyl)-1H-1,2,3-triazole-4-carboxamide], the IC50 is 100 to 1000 nM in experiment [1] and not above 1 nM in experiment [2].

Take `Cc1cc(-c2ccncc2N2CCN(C(=O)/C=C/CN(C)C)CC2)ccc1[C@@H](C)NC(=O)c1noc(C(C)(C)C)n1` [Example 86, (R,E)-5-(tert-butyl)-N-(1-(4-(3-(4-(4-(dimethylamino)but-2-enoyl)piperazin-1-yl)pyridin-4-yl)-2-methylphenyl)ethyl)-1,2,4-oxadiazole-3-carboxamide]: the figures for the IC50 in experiment [1] and in experiment [2] were 100 to 1000 nM and 1 to 10 nM, respectively.

Take `C=CC(=O)N(C)C1CCCN(c2cnccc2-c2ccc(CNC(=O)c3cnn(C(C)(C)C)c3)c(C)c2)C1` (stereo not drawn) [Example 42, 1-(tert-butyl)-N-(2-methyl-4-(3-(3-(N-methylacrylamido)piperidin-1-yl)pyridin-4-yl)benzyl)-1H-pyrazole-4-carboxamide]: the IC50 in experiment [1] is 100 to 1000 nM; in experiment [2], not above 1 nM.

Regarding `Cc1cc(-c2ccncc2N2CCN(C(=O)/C=C/CN(C)C)CC2)ccc1CNC(=O)c1noc(C(C)(C)C)n1` [Example 61, (E)-5-(tert-butyl)-N-(4-(3-(4-(4-(dimethylamino)but-2-enoyl)piperazin-1-yl)pyridin-4-yl)-2-methylbenzyl)-1,2,4-oxadiazole-3-carboxamide], the IC50 in experiment [1] was less than 100 nM; in experiment [2] it was not above 1 nM.

As to `C=CC(=O)N(C)C1CCN(c2cnccc2-c2ccc(CNC(=O)c3cn(C(C)(C)C)nn3)c(C)c2)C1` (stereo not drawn) [Example 2, 1-(tert-butyl)-N-(2-methyl-4-(3-(3-(N-methylacrylamido)pyrrolidin-1-yl)pyridin-4-yl)benzyl)-1H-1,2,3-triazole-4-carboxamide], the IC50 is 100 to 1000 nM in experiment [1] and 1 to 10 nM in experiment [2].

`C=CC(=O)N(C)[C@@H]1CCC(=O)N(c2cnccc2-c2ccc(CNC(=O)c3nnn(C(C)(C)C)n3)c(C)c2)C1` (single isomer, unassigned) [Example 53 Peak 2]: in experiment [2], the IC50 was more than 10 nM.

In experiment [2], `C=CC(=O)N1CCN(c2cnccc2-c2ccc(CNC(=O)c3ccc(C(F)F)nc3)c(C)c2)CC1` [Example 97, N-(4-(3-(4-acryloylpiperazin-1-yl)pyridin-4-yl)-2-methylbenzyl)-6-(difluoromethyl)nicotinamide] yielded an IC50 of 1 to 10 nM.

For orientation: IC50 means the midpoint of a concentration-inhibition curve.

For the origin of these results see US20240327380A1, “BTK INHIBITORS” (BIOGEN MA INC., priority 2020, published 2024).
